Measured values reported in paper PMC3231123, “A Bacterial Biosensor for Oxidative Stress Using the Constitutively Expressed Redox-Sensitive Protein roGFP2” (Sensors (Basel, Switzerland), 2010).

Target: T1, roGFP2 (Aequorea victoria, UniProt P42212, C48S/S65T/Q80R/S147C/Q204C)
T1 construct: gene GFP; redox-sensitive GFP mutant, His tag (pRSET-roGFP2), expressed in E. coli DH5alpha, Ni-NTA purified, DTT-reduced then desalted
Assay: […] nm excitation fluorescence ratio of isolated roGFP2, plate reader
Conditions: 1 ppm menadione; DTT-reduced roGFP2 1.39 ug/mL; 75 mM HEPES pH 7.0, 140 mM NaCl; monitored 5 min; oxidation of roGFP2, not reversible binding

CC1=CC(=O)c2ccccc2C1=O [menadione, 2-methyl-1,4-naphtoquinone] was tested. Which “% change of 400/490 nm ratio vs t = 0 at 1 ppm” value did it give?
Its value is 9.1 to 29.4%.
